# Source: patent US11028095B2, “Spiro-lactam and bis-spiro-lactam NMDA receptor modulators and uses thereof” (Aptinyx Inc., priority 2016, dated 2021)
# Like-named read-outs stand apart in the source and are kept apart here.
# Tests used:
# [1] = molecular target: T1, NMDAR2D expressing HEK cell membranes (Homo sapiens, UniProt O15399+Q05586); experiment: NMDAR agonist assay, [3H]MK-801 binding, NMDAR2D; assay type: biochemical; conditions: for Emax: read-out: NMDAR2D: % maximal [3H]MK-801 binding relative to 1 mM glycine; for EC50: [3H]MK-801 binding, read-out: NMDAR2D: log EC50 (converted)
# T1 construct: expressed in transfected cells; host or cells: HEK cells (membrane extract)
# Protocol: (§1) (nonequilibrium conditions).
# (§2) The baseline value was determined from the best fit curve of the DPM values modeled using the GraphPad program and the log(agonist) vs. response(three parameters) algorithm was then subtracted from all points in the dataset.
# Plasma stability (Human) = assay type: in vitro ADME
# Protocol: (§3) Plasma stability of disclosed compounds was investigated. The following table indicates the percent of compound remaining after 60 minutes.
# [2] = molecular target: T2, NMDAR2B expressing HEK cell membranes (Homo sapiens, UniProt Q05586+Q13224); experiment: NMDAR agonist assay, [3H]MK-801 binding, NMDAR2B; assay type: biochemical; conditions: for EC50: [3H]MK-801 binding; for Emax: relative to 1 mM glycine
# T2 construct: expressed in transfected cells; host or cells: HEK cells (membrane extract)
# Protocol: as §1, §2
# [3] = molecular target: T3, NMDAR2B expressing HEK cell membranes (Homo sapiens, UniProt Q13224); experiment: NMDAR agonist assay, [3H]MK-801 binding, NMDAR2B; assay type: biochemical; conditions: 50 μM glutamate; relative to 1 mM glycine
# T3 construct: expressed in transfected cells; host or cells: HEK cells (membrane extract)
# Protocol: as §1, §2
# [4] = Microsomal stability (Rat); assay type: in vitro ADME; conditions: rat microsomes
# Protocol: (§4) Microsomal stability of disclosed compounds was investigated. The following table indicates the percent of compound remaining after 60 minutes.
# [5] = molecular target: T4, NMDAR2A expressing HEK cell membranes (Homo sapiens, UniProt Q12879); experiment: NMDAR agonist assay, [3H]MK-801 binding, NMDAR2A; assay type: biochemical; conditions: 50 μM glutamate; relative to 1 mM glycine
# T4 construct: expressed in transfected cells; host or cells: HEK cells (membrane extract)
# Protocol: as §1, §2
# [6] = molecular target: T5, NMDAR2A expressing HEK cell membranes (Homo sapiens, UniProt Q05586+Q12879); experiment: NMDAR agonist assay, [3H]MK-801 binding, NMDAR2A; assay type: biochemical; conditions: for EC50: [3H]MK-801 binding; for Emax: relative to 1 mM glycine
# T5 construct: expressed in transfected cells; host or cells: HEK cells (membrane extract)
# Protocol: as §1, §2
# [7] = molecular target: T6, NMDAR2C expressing HEK cell membranes (Homo sapiens, UniProt Q05586+Q14957); experiment: NMDAR agonist assay, [3H]MK-801 binding, NMDAR2C; assay type: biochemical; conditions: for EC50: [3H]MK-801 binding
# T6 construct: expressed in transfected cells; host or cells: HEK cells (membrane extract)
# Protocol: as §1, §2
# [8] = Microsomal stability (Human); assay type: in vitro ADME; conditions: human microsomes
# Protocol: as §4
# Plasma stability (Rat) = assay type: in vitro ADME
# Protocol: as §3
# [9] = system: positive (hedonic) 50-kHz ultrasonic vocalizations (USVs); experiment: Positive Emotional Learning (PEL) test; assay type: in vivo; conditions: rat, PO, one hour after administration
# Protocol: Experiments were conducted as described in Burgdorf et al., “The effect of selective breeding for differential rates of 50-kHz ultrasonic vocalizations on emotional behavior in rats,” Devel. […] Rat 50-kHz ultrasonic vocalization (hedonic USVs) is a validated model for the study of positive affective state and is best elicited by rough-and-tumble play.
# The PEL assay measures the acquisition of positive (hedonic) 50-kHz ultrasonic vocalizations (USVs) to a social stimulus, heterospecific rough and tumble play stimulation. Heterospecific rough-and-tumble play stimulation was administered by the experimenter's right hand. One hour after administration of test compound or vehicle negative control (0.5% sodium carboxymethyl cellulose in 0.9% sterile saline vehicle), animals received 3 min of heterospecific rough-and-tumble play that consisted of alternating 15 sec blocks of heterospecific play and 15 sec of no-stimulation. […] Frequency modulated 50-kHz USVs that occurred during each of the no-stimulation periods were quantified to measure PEL. Animals were not habituated to play stimulation before testing. Positive emotional learning was measured during the conditioned stimulus (CS) trials preceding the tickle unconditioned stimulus (UCS) trials. Animals received 15 second trials consisting of 6 CS and 6 UCS trials each (3 min total).
# IV pharmacokinetics = assay type: in vivo; conditions: rat, in vivo, 2 mg/kg, Sprague Dawley rats, normal saline; for C0: read-out: C0; for Vd: read-out: Vss
# Protocol: Sprague Dawley rats were dosed intravenously using a normal saline formulation containing 2 mg/kg of the compounds identified in the below table. The table below summarizes the results of the IV pharmacokinetics.
# [10] = Oral pharmacokinetics (plasma, brain, CSF); assay type: in vivo; conditions: Sprague Dawley rats, per os, 10 mg/kg; for AUC(0-t) / Tmax / Cmax / bioavailability: rat, plasma, po; for Tmax: normal saline, read-out: Tmax; for Cmax: read-out: Cmax
# Protocol: In another experiment, Sprague Dawley rats were dosed per os using a normal saline formulation containing 10 mg/kg of the compounds identified in the table below. Plasma, brain, and CSF samples were analyzed at various time points over a 24 hour period. The table below summarizes the results of the oral pharmacokinetics.
# [11] = NMDAR2B: log EC50, 50 μM glutamate
# [12] = NMDAR2A: log EC50, 50 μM glutamate
# [13] = read-out: NMDAR2C: % maximal [3H]MK-801 binding relative to 1 mM glycine
# [14] = 50 μM glutamate, relative to 1 mM glycine
# [15] = 50 μM glutamate, read-out: NMDAR2B log EC50 (converted)
# [16] = 50 μM glutamate, read-out: NMDAR2B: % maximal [3H]MK-801 binding relative to 1 mM glycine
# [17] = 50 μM glutamate, read-out: NMDAR2A: log EC50 (converted)
# [18] = 50 μM glutamate, relative to 1 mM glycine, read-out: NMDAR2C A: % maximal [3H]MK-801 binding relative to 1 mM glycine
# T6 sequence (Q14957 20-1233, other chains not shown): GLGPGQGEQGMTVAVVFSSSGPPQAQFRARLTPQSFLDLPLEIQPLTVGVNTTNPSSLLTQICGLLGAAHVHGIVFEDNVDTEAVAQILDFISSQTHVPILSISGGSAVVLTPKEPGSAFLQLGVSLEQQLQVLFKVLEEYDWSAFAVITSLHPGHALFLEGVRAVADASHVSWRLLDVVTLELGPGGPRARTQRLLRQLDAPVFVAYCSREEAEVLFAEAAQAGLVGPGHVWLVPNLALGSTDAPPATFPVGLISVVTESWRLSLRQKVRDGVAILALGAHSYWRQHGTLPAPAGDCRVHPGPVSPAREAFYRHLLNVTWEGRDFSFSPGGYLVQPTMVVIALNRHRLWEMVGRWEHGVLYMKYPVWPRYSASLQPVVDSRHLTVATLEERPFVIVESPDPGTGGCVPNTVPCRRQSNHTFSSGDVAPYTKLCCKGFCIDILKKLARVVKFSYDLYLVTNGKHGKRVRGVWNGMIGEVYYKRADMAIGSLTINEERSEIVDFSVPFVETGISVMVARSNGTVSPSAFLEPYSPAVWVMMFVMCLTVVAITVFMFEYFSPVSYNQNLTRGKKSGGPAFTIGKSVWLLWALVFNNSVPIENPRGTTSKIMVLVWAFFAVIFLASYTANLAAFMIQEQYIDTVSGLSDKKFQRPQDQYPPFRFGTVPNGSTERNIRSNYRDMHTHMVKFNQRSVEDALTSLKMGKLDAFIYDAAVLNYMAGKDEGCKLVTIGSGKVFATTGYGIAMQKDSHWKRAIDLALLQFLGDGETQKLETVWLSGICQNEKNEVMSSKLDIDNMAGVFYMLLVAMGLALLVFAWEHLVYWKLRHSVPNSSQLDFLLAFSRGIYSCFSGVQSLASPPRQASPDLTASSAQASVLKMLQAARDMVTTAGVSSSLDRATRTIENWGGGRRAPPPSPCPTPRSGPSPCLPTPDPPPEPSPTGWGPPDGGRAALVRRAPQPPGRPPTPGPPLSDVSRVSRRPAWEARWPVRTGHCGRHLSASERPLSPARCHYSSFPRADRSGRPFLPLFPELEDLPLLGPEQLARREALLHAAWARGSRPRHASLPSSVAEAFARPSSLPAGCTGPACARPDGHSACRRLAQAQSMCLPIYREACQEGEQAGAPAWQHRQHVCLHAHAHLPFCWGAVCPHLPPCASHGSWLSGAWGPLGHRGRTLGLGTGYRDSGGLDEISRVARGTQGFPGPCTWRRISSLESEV
# T5 sequence (Q12879 23-1464, other chains not shown): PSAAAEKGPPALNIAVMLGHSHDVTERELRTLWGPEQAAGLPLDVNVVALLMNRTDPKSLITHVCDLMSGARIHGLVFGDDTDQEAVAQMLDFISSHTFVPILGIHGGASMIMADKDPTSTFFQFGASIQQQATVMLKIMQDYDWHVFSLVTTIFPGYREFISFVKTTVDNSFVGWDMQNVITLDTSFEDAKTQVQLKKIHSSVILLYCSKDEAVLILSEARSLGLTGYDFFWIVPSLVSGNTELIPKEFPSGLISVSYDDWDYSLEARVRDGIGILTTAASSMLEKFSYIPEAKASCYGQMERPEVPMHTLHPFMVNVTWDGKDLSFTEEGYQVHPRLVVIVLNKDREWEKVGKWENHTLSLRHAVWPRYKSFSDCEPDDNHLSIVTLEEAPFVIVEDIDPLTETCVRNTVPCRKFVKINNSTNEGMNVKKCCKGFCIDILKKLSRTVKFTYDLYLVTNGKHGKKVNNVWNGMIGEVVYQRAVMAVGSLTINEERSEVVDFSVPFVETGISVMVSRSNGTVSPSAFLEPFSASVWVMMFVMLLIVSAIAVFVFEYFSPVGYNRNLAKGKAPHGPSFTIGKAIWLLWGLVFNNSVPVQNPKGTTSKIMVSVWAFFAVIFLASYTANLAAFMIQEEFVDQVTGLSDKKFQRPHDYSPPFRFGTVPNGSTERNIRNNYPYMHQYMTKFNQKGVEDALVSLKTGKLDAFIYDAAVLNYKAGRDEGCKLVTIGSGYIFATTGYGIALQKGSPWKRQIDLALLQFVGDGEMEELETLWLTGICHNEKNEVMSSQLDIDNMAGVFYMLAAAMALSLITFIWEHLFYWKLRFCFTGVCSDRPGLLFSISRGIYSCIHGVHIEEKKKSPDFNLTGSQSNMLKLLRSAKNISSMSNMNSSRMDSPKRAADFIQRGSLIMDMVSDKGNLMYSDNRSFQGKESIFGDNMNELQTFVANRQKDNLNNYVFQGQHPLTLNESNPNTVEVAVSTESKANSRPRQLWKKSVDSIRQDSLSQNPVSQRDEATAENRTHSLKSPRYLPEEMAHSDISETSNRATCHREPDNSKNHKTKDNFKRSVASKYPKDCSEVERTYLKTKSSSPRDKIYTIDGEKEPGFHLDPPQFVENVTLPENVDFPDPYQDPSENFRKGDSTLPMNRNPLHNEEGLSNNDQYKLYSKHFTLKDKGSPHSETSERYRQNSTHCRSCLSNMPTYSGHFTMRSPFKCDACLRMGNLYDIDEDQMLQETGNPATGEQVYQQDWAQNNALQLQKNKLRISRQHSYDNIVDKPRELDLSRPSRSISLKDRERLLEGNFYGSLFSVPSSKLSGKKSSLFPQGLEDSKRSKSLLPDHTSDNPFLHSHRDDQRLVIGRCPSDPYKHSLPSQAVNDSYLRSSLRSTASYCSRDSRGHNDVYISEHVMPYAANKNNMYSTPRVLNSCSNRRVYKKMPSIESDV
# T1 sequence (O15399 28-1336, other chains not shown): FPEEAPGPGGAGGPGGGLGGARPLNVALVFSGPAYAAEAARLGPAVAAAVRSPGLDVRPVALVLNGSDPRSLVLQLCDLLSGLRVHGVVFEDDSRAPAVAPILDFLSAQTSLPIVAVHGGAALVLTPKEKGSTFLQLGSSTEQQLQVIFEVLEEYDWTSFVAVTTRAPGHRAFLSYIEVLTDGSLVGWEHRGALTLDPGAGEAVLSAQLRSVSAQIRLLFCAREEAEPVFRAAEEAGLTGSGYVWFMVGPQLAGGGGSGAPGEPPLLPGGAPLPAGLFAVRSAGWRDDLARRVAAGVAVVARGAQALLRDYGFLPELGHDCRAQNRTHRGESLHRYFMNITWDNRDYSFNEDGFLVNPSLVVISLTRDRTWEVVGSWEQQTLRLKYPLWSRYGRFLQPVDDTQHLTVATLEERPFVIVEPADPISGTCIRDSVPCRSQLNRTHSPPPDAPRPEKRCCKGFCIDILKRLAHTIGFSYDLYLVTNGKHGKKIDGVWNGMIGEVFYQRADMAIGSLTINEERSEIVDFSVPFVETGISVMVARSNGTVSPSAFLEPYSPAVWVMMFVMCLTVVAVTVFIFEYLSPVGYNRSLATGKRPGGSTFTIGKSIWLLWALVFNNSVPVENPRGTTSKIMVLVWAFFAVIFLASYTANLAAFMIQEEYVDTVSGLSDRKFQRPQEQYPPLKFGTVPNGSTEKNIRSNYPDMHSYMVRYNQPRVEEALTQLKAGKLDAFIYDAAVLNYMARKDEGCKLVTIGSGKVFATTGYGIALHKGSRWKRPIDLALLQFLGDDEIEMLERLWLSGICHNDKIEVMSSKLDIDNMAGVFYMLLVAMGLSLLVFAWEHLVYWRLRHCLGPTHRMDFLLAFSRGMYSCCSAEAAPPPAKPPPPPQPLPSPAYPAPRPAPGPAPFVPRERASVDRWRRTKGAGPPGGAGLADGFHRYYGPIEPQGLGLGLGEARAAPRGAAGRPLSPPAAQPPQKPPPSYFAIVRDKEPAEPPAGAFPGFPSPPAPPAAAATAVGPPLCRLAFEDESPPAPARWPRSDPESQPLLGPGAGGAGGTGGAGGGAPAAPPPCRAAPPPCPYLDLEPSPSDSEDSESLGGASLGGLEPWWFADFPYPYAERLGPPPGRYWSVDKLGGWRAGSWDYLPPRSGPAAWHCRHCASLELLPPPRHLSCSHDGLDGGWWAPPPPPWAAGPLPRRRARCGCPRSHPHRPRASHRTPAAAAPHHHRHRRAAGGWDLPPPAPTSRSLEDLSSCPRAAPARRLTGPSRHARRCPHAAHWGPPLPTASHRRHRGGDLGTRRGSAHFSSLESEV
Structure (SMILES),Emax [1],Plasma (Human): percent of compound remaining after 60 minutes (Plasma stability (Human)),"EC50 [2, 11]",Microsomal (Rat): percent of compound remaining after 60 minutes [4],"EC50 [6, 12]","Emax [7, 13]",Microsomal (Human): percent of compound remaining after 60 minutes [8],Plasma (Rat): percent of compound remaining after 60 minutes (Plasma stability (Rat)),Max Effect (mean number of 50 kHz USVs per 15 seconds) ([9]; dose 0.001-1 mg/kg),EC50 ([1]; 50 μM glutamate),"Emax [1, 14]","EC50 [2, 15]","Emax [2, 16]","EC50 [6, 17]","AUC(0-t) (IV pharmacokinetics; Sprague Dawley, iv)","clearance (IV pharmacokinetics; Sprague Dawley, iv)","half-life (IV pharmacokinetics; Sprague Dawley, iv)","C0 (IV pharmacokinetics; Sprague Dawley, iv)",CSF Cmax [10],Brain Cmax [10],other results
"CN1C2(CCC13CNC3=O)CNC2=O (single isomer, unassigned) [AB-2, 5-methyl-2,5,8-triazadispiro[3.1.36.24]undecane-1,7-dione]",< 100%,86%,< 1 nM,78%,> 100 nM,< 100%,72%,83%,** (**: 11-16.9),,,,,,,,,,,,"NMDAR2B: % maximal [3H]MK-801 binding relative to 1 mM glycine [3]: + (<100%=+); NMDAR2A: % maximal [3H]MK-801 binding relative to 1 mM glycine [5]: − (−=0); EC50 ([7]; NMDAR2C: log EC50, 50 μM glutamate): < 1 nM"
"C[C@@H](O)[C@H](NC(=O)C1CCC2(CNC2=O)N1)C(N)=O (single isomer, unassigned) [AQ-1]",,100%,,84%,,,100%,100%,,< 1 nM,< 100%,< 1 nM,< 100%,< 1 nM,3330 ng·h/mL,9.84 mL/min/kg,21.6 min,6820 ng/mL,0 ng/mL,0 ng/mL,"Emax ([6]; 50 μM glutamate, read-out: NMDAR2A: % maximal [3H]MK-801 binding relative to 1 mM glycine): < 100%; Vd (IV pharmacokinetics; Sprague Dawley, iv): 0.28 L/kg; Emax [7, 18]: < 100%; Max Effect (mean number of 50 kHz USVs per 15 seconds) ([9]; dose 0.1 mg/kg, 0.1 mg/kg): ** (**: 11-16.9); % F [10]: 2%; AUC(0-t) ([10]; Sprague Dawley): 350 ng·h/mL; Tmax ([10]; Sprague Dawley): 49.8 min; Cmax ([10]; Sprague Dawley): 133 ng/mL"
"C[C@@H](O)[C@@H](C(N)=O)N1CC2(CCC3(CN([C@H](C(N)=O)[C@@H](C)O)C3=O)N2C(=O)OC(C)(C)C)C1=O (stereo partly drawn) [BY, tert-butyl 2,8-bis((2S,3R)-1-amino-3-hydroxy-1-oxobutan-2-yl)-1,7-dioxo-2,5,8-triazadispiro[3.1.36.24]undecane-5-carboxylate]",,81%,,81%,,,100%,82%,,> 100 nM,0%,< 1 nM,> 100%,> 100 nM,5960 ng·h/mL,5.6 mL/min/kg,38.4 min,10200 ng/mL,0 ng/mL,0 ng/mL,"Vd (IV pharmacokinetics; Sprague Dawley, iv): 0.15 L/kg; EC50 ([7]; 50 μM glutamate, read-out: NMDAR2C: log EC50 (converted)): < 1 nM; Emax [7, 18]: < 100%; Max Effect (mean number of 50 kHz USVs per 15 seconds) ([9]; dose 0.1 mg/kg): ** (**: 11-16.9); AUC(0-t) ([10]; Sprague Dawley): 486 ng·h/mL; bioavailability ([10]; Sprague Dawley): 2%; Tmax ([10]; Sprague Dawley): 49.8 min; Cmax ([10]; Sprague Dawley): 156 ng/mL"
"CC(C)CN1[C@]2(CC[C@]13CNC3=O)CNC2=O [Compound AF, 5-isobutyl-2,5,8-triazadispiro[3.1.36.24]undecane-1,7-dione]",< 100%,99%,< 1 nM,87%,< 1 nM,> 100%,92%,90%,** (**: 11-16.9),,,,,,,,,,2781 ng/mL,1313.8 ng/mL,"Emax ([2]; read-out: NMDAR2B: % maximal [3H]MK-801 binding relative to 1 mM glycine, 50 μM glutamate): < 100%; Emax ([6]; read-out: NMDAR2A: % maximal [3H]MK-801 binding relative to 1 mM glycine, 50 μM glutamate): < 100%; AUC(0-t) (IV pharmacokinetics): 6450 ng·h/mL; clearance (IV pharmacokinetics): 5.2 mL/min/kg; half-life (IV pharmacokinetics): 299 min; C0 (IV pharmacokinetics): 3900 ng/mL; Vd (IV pharmacokinetics): 0.59 L/kg; AUC(0-t) [10]: 16100 ng·h/mL; bioavailability [10]: 82%; Tmax [10]: 25.2 min; Cmax [10]: 7250 ng/mL"
